“And” between values parts separate entries of the source, which are not always exact repeats. Equal entries are not always repeated.
Tested on: 349418-098-R-PDC complex spheroid growth
Test: Anticancer human tumor 349418-098-R-PDC patient-derived lung adenocarcinoma cell line growth inhibition [AhR]
Conditions: for viability, T/C: stronger effect = lower value
In short: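 Spheroids combined tumor cells with HUVEC endothelial cells and human MSCs as stroma. AhR antagonists were paired with standard or investigational drugs, each dosed in half-log steps down from near clinical Cmax, or from 10 microM where Cmax was unknown.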

[1] = curve of first compound, second compound 0.1 µM
[2] = curve of first compound, second compound 0.316 µM
[3] = curve of first compound, second compound 1 µM
[4] = curve of first compound, second compound 3.16 µM
[5] = curve of first compound, second compound 10 µM
[6] = second compound 0.1 µM, first compound 0.0316 µM
[7] = second compound 0.1 µM, first compound 0.1 µM
[8] = second compound 0.1 µM, first compound 0.316 µM
[9] = second compound 0.1 µM, first compound 1 µM
[10] = second compound 0.1 µM, first compound 3.16 µM
[11] = second compound 0.1 µM, first compound 10 µM
[12] = second compound 0.316 µM, first compound 0.0316 µM
[13] = second compound 0.316 µM, first compound 0.1 µM
[14] = second compound 0.316 µM, first compound 0.316 µM
[15] = second compound 0.316 µM, first compound 1 µM
[16] = second compound 0.316 µM, first compound 3.16 µM
[17] = second compound 0.316 µM, first compound 10 µM
[18] = second compound 1 µM, first compound 0.0316 µM
[19] = second compound 1 µM, first compound 0.1 µM
[20] = second compound 1 µM, first compound 0.316 µM
[21] = second compound 1 µM, first compound 1 µM
[22] = second compound 1 µM, first compound 3.16 µM
[23] = second compound 1 µM, first compound 10 µM
[24] = second compound 3.16 µM, first compound 0.0316 µM
[25] = second compound 3.16 µM, first compound 0.1 µM
[26] = second compound 3.16 µM, first compound 0.316 µM
[27] = second compound 3.16 µM, first compound 1 µM
[28] = second compound 3.16 µM, first compound 3.16 µM
[29] = second compound 3.16 µM, first compound 10 µM
[30] = second compound 10 µM, first compound 0.0316 µM
[31] = second compound 10 µM, first compound 0.1 µM
[32] = second compound 10 µM, first compound 0.316 µM
[33] = second compound 10 µM, first compound 1 µM
[34] = second compound 10 µM, first compound 3.16 µM
[35] = second compound 10 µM, first compound 10 µM
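Further: spheroids exposed to agents for seven days before luminescence viability read.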
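Wherever viability, T/C is given: spheroids also contain HUVEC endothelial cells and human MSC stroma.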

| SMILES | IC50 [1] | IC50 [2] | IC50 [3] | IC50 [4] | IC50 [5] | viability, T/C [6] | viability, T/C [7] | viability, T/C [8] | viability, T/C [9] | viability, T/C [12] | viability, T/C [13] | viability, T/C [14] | viability, T/C [15] | viability, T/C [18] | viability, T/C [19] | viability, T/C [20] | viability, T/C [21] | viability, T/C [24] | viability, T/C [25] | viability, T/C [26] | further results |
| --- | --- | --- | --- | --- | --- | --- | --- | --- | --- | --- | --- | --- | --- | --- | --- | --- | --- | --- | --- | --- | --- |
| CC1COCCN1c1cc(C2(S(C)(=N)=O)CC2)nc(-c2ccnc3[nH]ccc23)n1 (configuration not stated) + Cc1ccccc1N=Nc1ccc(NC(=O)c2ccnn2C)c(C)c1 | 2080 nM | 2000 nM | 1960 nM | 2040 nM | 1030 nM | 87% | 110% | 86.5% | 83.6% | 87.8% | 78% | 78.6% | 89.7% | 89.2% | 123% | 86.8% | 66.8% | 90.8% | 76.9% | 97.9% | viability, T/C [10]: 31%; viability, T/C [11]: 14.4%; viability, T/C [16]: 27.7%; viability, T/C [17]: 13.4%; viability, T/C [22]: 39.9%; viability, T/C [23]: 16%; viability, T/C [27]: 79.3%; viability, T/C [28]: 31.8%; viability, T/C [29]: 15.3%; viability, T/C [30]: 69.5%; viability, T/C [31]: 70.1%; viability, T/C [32]: 56.6%; viability, T/C [33]: 55.5%; viability, T/C [34]: 28.9%; viability, T/C [35]: 17.1% |
| NS(=O)(=O)OCC1CC(n2ccc3c(NC4CCc5ccccc54)ncnc32)CC1O (configuration not stated) + Cc1ccccc1N=Nc1ccc(NC(=O)c2ccnn2C)c(C)c1 | 287 nM | 196 nM | 221 nM | 131 nM | 63.7 nM | 96.6% | 81.3% | 46.1% | 22.6% | 75% | 63.8% | 39.2% | 24.9% | 90.4% | 71.1% | 39% | 23.5% | 68.5% | 58.1% | 26.3% | viability, T/C [10]: 11.4%; viability, T/C [11]: 10.5%; viability, T/C [16]: 11.8%; viability, T/C [17]: 10.2%; viability, T/C [22]: 12%; viability, T/C [23]: 10.1%; viability, T/C [27]: 20.2%; viability, T/C [28]: 11.9%; viability, T/C [29]: 9.47%; viability, T/C [30]: 65.3%; viability, T/C [31]: 38.9%; viability, T/C [32]: 27.1%; viability, T/C [33]: 18%; viability, T/C [34]: 10.8%; viability, T/C [35]: 9.27% |
| COc1cc(Nc2ncc3c(n2)-c2ccc(Cl)cc2C(c2c(F)cccc2OC)=NC3)ccc1C(=O)O + Cc1cncc(-c2nc(NCCc3c[nH]c4ccccc34)c3ncn(C(C)C)c3n2)c1 | 195 nM | 242 nM | 267 nM | < 31.6 nM | < 31.6 nM | 68.8% | 58.2% | 42.4% | 40.8% | 72.6% | 68.6% | 44.4% | 47.8% | 67.7% | 57.3% | 46.7% | 48.8% | 19.7% | 20% | 14.1% | viability, T/C [10]: 36.3%; viability, T/C [11]: 33.1%; viability, T/C [16]: 41.1%; viability, T/C [17]: 43.9%; viability, T/C [22]: 40.3%; viability, T/C [23]: 44.8%; viability, T/C [27]: 12.7%; viability, T/C [28]: 14.7%; viability, T/C [29]: 17.9%; viability, T/C [30]: 3.34%; viability, T/C [31]: 2.89%; viability, T/C [32]: 2.53%; viability, T/C [33]: 2.17%; viability, T/C [34]: 2.59%; viability, T/C [35]: 3.53% |
| COc1cc(C2c3cc4c(cc3C(OC3OC5COC(C)OC5C(O)C3O)C3COC(=O)C23)OCO4)cc(OC)c1O (configuration not stated) + CC(CO)NC(=O)c1cc(-c2ccc(Cl)cc2)nn(-c2cnn(C)c2)c1=O | 727 nM | 607 nM | 503 nM | 269 nM | 136 nM | 103% | 98% | 91.1% | 34.1% | 108% | 109% | 72.4% | 32.6% | 102% | 90.2% | 64.5% | 29% | 78.8% | 104% | 43.2% | viability, T/C [10]: 18%; viability, T/C [11]: 12.9%; viability, T/C [16]: 16.2%; viability, T/C [17]: 11.3%; viability, T/C [22]: 18.7%; viability, T/C [23]: 14.6%; viability, T/C [27]: 25.1%; viability, T/C [28]: 16.6%; viability, T/C [29]: 13.5%; viability, T/C [30]: 59%; viability, T/C [31]: 56.4%; viability, T/C [32]: 36%; viability, T/C [33]: 22.3%; viability, T/C [34]: 14.4%; viability, T/C [35]: 14.1% |
| Nc1ncn(C2CC(O)C(CO)O2)c(=O)n1 (configuration not stated) |  |  |  |  |  |  |  |  |  |  |  |  |  |  |  |  |  |  |  |  | viability, T/C (compound 0.00316 µM): 105% and 99.7% and 103%; viability, T/C (compound 0.01 µM): 103% (2×) and 68.3%; viability, T/C (compound 0.0316 µM): 80% and 57.7% and 46.6%; viability, T/C (compound 0.1 µM): 67% and 49.8% and 46.6%; viability, T/C (compound 0.316 µM): 38.9% and 42.3% and 32.5%; viability, T/C (compound 1 µM): 32.3% and 31.3% and 26.1%; IC50 (curve of compound): 204 nM and 54 nM and 32.5 nM |
| CC1COCCN1c1cc(-c2ccnn2C)c2ccnc(-c3ccn[nH]3)c2n1 (configuration not stated) + CC(CO)NC(=O)c1cc(-c2ccc(Cl)cc2)nn(-c2cnn(C)c2)c1=O | 79.1 nM | 68.8 nM | 82.3 nM | 67.4 nM | 52.9 nM | 81.9% | 41.9% | 14.2% | 10.3% | 89.1% | 31.2% | 15.8% | 9.1% | 91.6% | 42.2% | 16.6% | 10.9% | 85.3% | 32.8% | 15.8% | viability, T/C (second compound 0.1 µM, first compound 0.00316 µM): 90.3%; viability, T/C (second compound 0.1 µM, first compound 0.01 µM): 99.2%; viability, T/C (second compound 0.316 µM, first compound 0.00316 µM): 87.4%; viability, T/C (second compound 0.316 µM, first compound 0.01 µM): 92.3%; viability, T/C (second compound 1 µM, first compound 0.00316 µM): 112%; viability, T/C (second compound 1 µM, first compound 0.01 µM): 128%; viability, T/C (second compound 3.16 µM, first compound 0.00316 µM): 67.7%; viability, T/C (second compound 3.16 µM, first compound 0.01 µM): 96.1%; viability, T/C [27]: 12%; viability, T/C (second compound 10 µM, first compound 0.00316 µM): 62.8%; viability, T/C (second compound 10 µM, first compound 0.01 µM): 94%; viability, T/C [30]: 69.1%; viability, T/C [31]: 25.2%; viability, T/C [32]: 14.2%; viability, T/C [33]: 10.1% |
| O=C(C=Cc1cccc(S(=O)(=O)Nc2ccccc2)c1)NO + Cc1cncc(-c2nc(NCCc3c[nH]c4ccccc34)c3ncn(C(C)C)c3n2)c1 | 682 nM | 524 nM | 598 nM | < 31.6 nM | < 31.6 nM | 90.6% | 79.1% | 67.8% | 43.2% | 85.2% | 68.9% | 59.3% | 43.5% | 76.4% | 75.8% | 61.1% | 41.3% | 30.8% | 34.8% | 37.9% | viability, T/C [10]: 13.2%; viability, T/C [11]: 1.82%; viability, T/C [16]: 11.3%; viability, T/C [17]: 1.83%; viability, T/C [22]: 10.3%; viability, T/C [23]: 1.94%; viability, T/C [27]: 22.7%; viability, T/C [28]: 7.91%; viability, T/C [29]: 1.33%; viability, T/C [30]: 3.17%; viability, T/C [31]: 3.68%; viability, T/C [32]: 2.97%; viability, T/C [33]: 1.98%; viability, T/C [34]: 1.53%; viability, T/C [35]: 0.75% |

— PubChem BioAssay AID1918996 (Molecular Pharmacology Branch, DTP, NCI, 2023)
